In ChEMBL document CHEMBL1143319, “Structure-based virtual screening for novel inhibitors of the sarco/endoplasmic reticulum calcium ATPase and their experimental evaluation” (Bioorg Med Chem, 2009):

Assay: Inhibition of rabbit hind leg tissue microsomes ATPase activity of SERCA assessed as ATP hydrolysis
Design: species or system Oryctolagus cuniculus

| SMILES | IC50 |
| --- | --- |
| CC(c1ccc(O)cc1)C(C)c1ccc(O)cc1 (centres undefined) | 28.3 µM |
| Oc1cc(Cc2ccccc2)c(O)cc1Cc1ccccc1 | 9.4 µM |
| Oc1ccc2ccccc2c1Cc1c(O)ccc2ccccc12 | 15 µM |
| CC(C)(C)c1cc2c(cc1O)CCC2 | 28.1 µM |
| CCC(C)(c1ccc(O)c(C)c1)c1ccc(O)c(C)c1 | 39.3 µM |
| CC(c1ccccc1)c1cc(C(C)(C)C)cc(C(C)(C)C)c1O (centres undefined) | 33.8 µM |
| Cc1cc(C(C)(C)c2cc(C)c(O)c(C)c2)cc(C)c1O | 19.5 µM |
| CC(C)(C)c1cc(O)c(C(C)(C)C)cc1O | 0.4 µM |
| CC(C)Cc1ccc(CC(C)C)c(O)c1 | 18.8 µM |
| Oc1ccc(O)c(C2CCCCCCC2)c1 | 11.5 µM |
| Oc1ccc2ccccc2c1Cc1cccc2ccccc12 | 27.3 µM |
| Oc1cc(Cc2ccccc2)c(Cc2ccccc2)cc1O | 23.8 µM |
| CC(C)(C)c1ccc(O)c(Cc2cc(C(C)(C)C)ccc2O)c1 | 11.8 µM |
| CC(C)CCCCCCc1ccc(O)cc1 | 17.2 µM |
| CC(c1ccccc1)(c1ccccc1)c1ccc(O)cc1 | 49.7 µM |
| COc1ccc(C(C)c2cc(C(C)(C)C)cc(C(C)(C)C)c2O)cc1 (centres undefined) | 35.3 µM |
| COc1ccc(C(C)c2cc(C(C)(C)C)c(O)c(C(C)(C)C)c2)cc1 (centres undefined) | 45.4 µM |
| CC(C)(C)c1ccc(O)c(C(c2cc(C(C)(C)C)ccc2O)c2cc(C(C)(C)C)ccc2O)c1 | 21.3 µM |
| CC(=O)C1=C(O)[C@@H]2[C@H]3c4c[nH]c5cccc(c45)C[C@H]3C(C)(C)N2C1=O [CYCLOPIAZONIC ACID] | 0.12 µM |
